Test results reported in patent US10577395B2 (priority 2014, dated 2020).
Converted amounts (≈) assume the structure as drawn.

Assays:
[1] = system: vancomycin-resistant Enterococcus faecalis (VanA VRE, BM4166); experiment: microbe, parasite or virus in culture; format: cell-based; details: for MIC: Enterococcus faecalis, VRE, read-out: MIC, VanA E. faecalis
Procedure: (§1) Assays were carried out following the methods of Clinical and Laboratory Standards Institute; Methods for Dilution Antimicrobial Susceptibility Tests for Bacteria That Grow Aerobically; Approved Standard, […].; CLSI document M07-A8; Clinical and Laboratory Standards Institute: Wayne, Pa., 2009.
(§2) This diluted bacterial stock solution was then inoculated into a well of a V-shaped 96-well glass coated microtiter plate, supplemented with serial diluted aliquots of the antibiotic solution DMSO (4 μL), to achieve a total assay volume of 0.1 mL. The plate was then incubated at 37° C. for 18 hours, after which minimal inhibitory concentrations (MICs) were determined by monitoring the cell growth (observed as a pellet) in the wells. The lowest concentration of antibiotic (in μg/mL) capable of eliminating the cell growth in the wells is reported as the MIC.

[2] = system: Enterococcus faecium (VanA VRE, ATCC BAA-2317); experiment: Antimicrobial assay, MIC, VanA E. faecium; format: cell-based; details: for MIC: Enterococcus faecium, read-out: MIC, VanA E. faecium
Procedure: as §1, §2

[3] = system: vancomycin-resistant Enterococcus faecalis (VanB VRE, strain ATCC 51299); experiment: microbe, parasite or virus in culture; format: cell-based; details: for MIC: Enterococcus faecalis, read-out: MIC, VanB E. faecalis
Procedure: as §1, §2

[4] = system: vancomycin-sensitive Staphylococcus aureus (VSSA strain ATCC 25923); experiment: Antimicrobial assay, MIC, vancomycin-sensitive S. aureus; format: cell-based; details: ATCC 25923; for MIC: Staphylococcus aureus, ATCC25923, read-out: MIC, sensitive S. aureus
Procedure: as §1, §2

[5] = system: methicillin and oxacillin-resistant Staphylococcus aureus subsp. aureus (MRSA strain ATCC 43300); experiment: Antimicrobial assay, MIC, MRSA; format: cell-based; details: for MIC: Staphylococcus aureus, read-out: MIC, MRSA S. aureus
Procedure: as §1, §2

[6] = system: VanA VRE; experiment: Antimicrobial assay, MIC for VanA VRE; format: cell-based, E. faecalis and E. faecium
Procedure: as §1, §2

Molecule | MIC [1] | MIC [2] | MIC, VanB E. faecalis ([3]; ATCC 51299) | MIC, VanA E. faecalis ([1]; BM 4166) | MIC, VanA E. faecium ([2]; ATCC BAA-2317) | MIC, MRSA S. aureus ([5]; ATCC 43300) | MIC [3] | MIC [4] | MIC [5] | other results
CN[C@H](CC(C)C)C(=O)N[C@H]1C(=O)N[C@@H](CC(N)=O)C(=O)N[C@H]2C(=N)NC3C(=O)N[C@H](C(=O)N[C@H](CO)c4cc(O)cc(O)c4-c4cc3ccc4O)[C@H](O)c3ccc(c(Cl)c3)Oc3cc2cc(c3OC2OC(CO)C(O)[C@H](O)[C@@H]2O[C@H]2CC(C)(N)[C@H](O)[C@H](C)O2)Oc2ccc(cc2Cl)[C@H]1O (stereo partly shown) [Compound 25] | 2 µg/mL (≈ 1.39 µM) | 2 µg/mL (≈ 1.39 µM) | – | – | – | – | – | – | – | –
CN[C@H](CC(C)C)C(=O)N[C@H]1C(=O)N[C@@H](CC(N)=O)C(=O)N[C@H]2C(=O)NC3C(=O)N[C@H](C(=O)N[C@H](CO)c4cc(O)cc(O)c4-c4cc3ccc4O)[C@H](O)c3ccc(c(Cl)c3)Oc3cc2cc(c3OC2OC(CO)C(O)[C@H](O)[C@@H]2O[C@H]2CC(C)(N)[C@H](O)[C@H](C)O2)Oc2ccc(cc2Cl)[C@H]1O (stereo partly shown) [Compound 23, hydroxymethylvancomycin, reference compound] | – | – | 8 µg/mL (≈ 5.57 µM) | 250 µg/mL (≈ 174 µM) | 250 µg/mL (≈ 174 µM) | 0.5 µg/mL (≈ 0.348 µM) | – | – | – | MIC, sensitive S. aureus [4]: 0.5 µg/mL (≈ 0.348 µM)
CN[C@H](CC(C)C)C(=O)N[C@H]1C(=O)N[C@@H](CC(N)=O)C(=O)N[C@H]2C(=S)NC3C(=O)N[C@H](C(=O)N[C@H](CO)c4cc(O)cc(O)c4-c4cc3ccc4O)[C@H](O)c3ccc(c(Cl)c3)Oc3cc2cc(c3OC2OC(CO)C(O)[C@H](O)[C@@H]2O[C@H]2CC(C)(N)[C@H](O)[C@H](C)O2)Oc2ccc(cc2Cl)[C@H]1O (stereo partly shown) [Compound 24] | > 32 µg/mL | > 32 µg/mL | – | – | – | – | > 32 µg/mL | > 32 µg/mL | > 32 µg/mL | –
CN[C@H](CC(C)C)C(=O)N[C@H]1C(=O)N[C@@H](CC(N)=O)C(=O)N[C@H]2C(=S)NC3C(=O)N[C@H](C(=O)N[C@H](CO)c4cc(O)cc(O)c4-c4cc3ccc4O)[C@H](O)c3ccc(c(Cl)c3)Oc3cc2cc(c3OC2OC(CO)C(O)[C@H](O)[C@@H]2O[C@H]2CC(C)(NCc3ccc(-c4ccc(Cl)cc4)cc3)[C@H](O)[C@H](C)O2)Oc2ccc(cc2Cl)[C@H]1O (stereo partly shown) [Compound 27] | 8 µg/mL (≈ 4.84 µM) | 4 µg/mL (≈ 2.42 µM) | – | – | – | – | 4 µg/mL (≈ 2.42 µM) | 4 µg/mL (≈ 2.42 µM) | 8 µg/mL (≈ 4.84 µM) | –
CBP-[Ψ[CH2NH]Tpg^4]vancomycin [Compound 17] | – | – | 0.5 µg/mL | 0.13 µg/mL | 0.06 µg/mL | 0.25 µg/mL | – | – | – | MIC, Van B E. faecalis, serum concentration 10% ([3]; ATCC 51299, 10%): 0.5 µg/mL; MIC, Van B E. faecalis, serum concentration 25% ([3]; ATCC 51299, 25%): 1 µg/mL; MIC, Van B E. faecalis, serum concentration 100% ([3]; ATCC 51299, 100%): 2 µg/mL; MIC, Van A E. faecalis, serum concentration 10% ([1]; BM 4166, 10%): 0.13 µg/mL; MIC, Van A E. faecalis, serum concentration 25% ([1]; BM 4166, 25%): 0.26 µg/mL; MIC, Van A E. faecalis, serum concentration 100% ([1]; BM 4166, 100%): 0.5 µg/mL; improvement in activity against VanA VRE on introduction of the (4-chlorobiphenyl)methyl group ([6]; relative to the analogue without CBP group): 100 fold; MIC against VanA VRE ([6]; stated for VanA VRE): 0.06 to 0.13 µg/mL; MIC, Van A E. faecium, serum concentration 10% ([2]; ATCC BAA-2317, 10%): 0.06 µg/mL; MIC, Van A E. faecium, serum concentration 25% ([2]; ATCC BAA-2317, 25%): 0.13 µg/mL; MIC, Van A E. faecium, serum concentration 100% ([2]; ATCC BAA-2317, 100%): 0.5 µg/mL; MIC, MRSA S. aureus, serum concentration 10% ([5]; ATCC 43300, 10%): 0.25 µg/mL; MIC, MRSA S. aureus, serum concentration 25% ([5]; ATCC 43300, 25%): 0.5 µg/mL; MIC, MRSA S. aureus, serum concentration 100% ([5]; ATCC 43300, 100%): 1 µg/mL
CN[C@H](CC(C)C)C(=O)N[C@H]1C(=O)N[C@@H](CC(N)=O)C(=O)N[C@H]2C(=O)NC3C(=O)N[C@H](C(=O)N[C@H](CO)c4cc(O)cc(O)c4-c4cc3ccc4O)[C@H](O)c3ccc(c(Cl)c3)Oc3cc2cc(c3OC2OC(CO)C(O)[C@H](O)[C@@H]2O[C@H]2CC(C)(NCc3ccc(-c4ccc(Cl)cc4)cc3)[C@H](O)[C@H](C)O2)Oc2ccc(cc2Cl)[C@H]1O (stereo partly shown) [Compound 26] | 2 µg/mL (≈ 1.22 µM) | 4 µg/mL (≈ 2.45 µM) | – | – | – | – | 0.13 µg/mL (≈ 0.0795 µM) | 0.03 µg/mL (≈ 0.0183 µM) | 0.03 µg/mL (≈ 0.0183 µM) | –
